Assay results: patent US20020169296A1, “Linked, sequence-specific DNA-binding molecules” (priority 2000, published 2002)
Like-named read-outs stand apart in the source and are kept apart here.

Columns and labels:
[1] = test system: Drosophila histone SAR probe (clustered/long AT-tracts); experiment: DNase I footprinting on SAR probe; format: binding; conditions: for Kd: apparent dissociation constant, SAR probe, read-out: Kdapp SAR
Experimental: Since satellite I is composed of exclusively A and T bases, it constitutes an ‘ideal’ binding substrate for oligopyrroles. But to obtain SAR-specific compounds, molecules are required that preferably bind its clustered, irregularly spaced AT-tracts. Binding studies were carried out with P9, P7 and P13 on the Drosophila histone SAR probe which contains the following clustered/long AT-tracts (W15N3W17N5W16N13W8NW6 where N is any base, see also FIG. 3D). […] The ratio of these two affinities is used (KappW9/KappSAR) as an empirical measure of SAR specificity. For all compounds tested thus far, this value (referred to as SAR preference factor) was around unity (Table 3).
(§1) Fragments were purified on low-melt agarose gels and then cloned into a modified pSP64 vector, cut by BamHI and BglII. End-labeling was carried out following digestion with HindIII and a fill-in reaction with Klenow DNA polymerase. The labeled plasmid was cut with PvuII and the target fragments purified from low-melting agarose gels. The 657 bp EcoRl/Hinf1 fragment of the Drosophila histone SAR was cloned into the SmaI site of the modified pSP64 plasmid. This SAR probe was end-labeled following digestion with EcoRl, then cut with ClaI and the resulting 347 bp fragment purified from low-melting agarose gels.
(§2) All reactions were performed in a total volume of 40 μl. A polyamide stock solution or buffer (for reference lanes) was added to an assay buffer containing 20 kcpm radiolabeled DNA, affording final concentrations of 10 mM Tris-HCl (pH 7.4), 10 mM KCl, 10 mM MgCl, 5 mM CaCl2, 0.5 mM EDTA, 0.5 mM EGTA, 1 mM DTT and 0.1% digitonine. The solutions were allowed to equilibrate for at least 2 h at room temperature. Footprinting reactions were initiated by the addition of 2 μl of a DNase stock solution (containing −100 pg DNase I in buffer) and allowed to proceed for 2 min at room temperature. The reactions were stopped by addition of 10 μl of a solution containing 1.25 M NaCl, 100 mM EDTA. Next, 5 μl of a 1% SDS solution was added, followed by 2 μl of a solution containing 1 μg poly(dA-dT), 1 μg salmon sperm DNA and 10 μg glycogen and the DNA was ethanol precipitated (20 min at −20° C.). The reactions were resuspended in 4 μl of 80% formamide loading buffer, denatured 10 min at 85° C., cooled on ice and electrophoresed on 8% polyacrylamide denaturing gels (5% cross-link, 8 M urea) at 30 W for 1 h. The gels were dried and exposed o/n at −70° C.

[2] = test system: sperm nuclei (condensation to chromatids); experiment: Chromosome condensation of sperm nuclei in mitotic Xenopus egg extracts; format: biochemical; conditions: for reversal of condensation inhibition by competitor oligonucleotide: Lex10 1 μM
Source text: Mitotic Xenopus egg extracts convert added nuclei and sperm to chromatids in vitro. This chromosome condensation process requires topoisomerase II (Adachi et al., 1991), the protein complex condensin (Hirano T, 1997) and presumably other unidentified activities present in the mitotic extract. First, chromatin is remodeled and nuclei then proceed quite synchronously through a number of morphologically distinguishable steps (Hirano and Mitchison, 1991). Remodeling is morphological manifested by swelling of the nuclei which involves exchange of basic sperm-specific proteins for H2A/H2B and the incorporation of histone B4 (Dimitrov S, 1994).
Pyrrole drugs were added to the extract together with the sperm or after the remodeling step (at 10 minutes) and the extent of condensation was determined after 120 min. At this time point, the conversion of all sperm nuclei to clusters of individual chromatids is complete in the absence of drug (FIG. 8A, control). […] Addition of this compound at 125 to 250 nM (indicated) arrested this process at the so-called early ‘ruffle’ stage (FIG. 8A). These structures retain the swollen sperm shape, but they have peripheral blebs (ruffles) and a slightly heterogeneous interior. At this drug concentration, no chromatids are seen. If the concentration of Lex10 is raised to 500 nM, we observed an even earlier arrest as evidenced by the accumulation of swollen, remodeled sperm-shaped nuclei containing a homogeneous interior and smooth periphery. […] The monomer P7 was also tested but we observed no inhibition with the pyrrole pentamer up to the highest concentration (8 μM) tested. Condensation was inhibited at a ruffle stage with a P9 concentration of 2 μM (not shown).
In the experiment shown in FIG. 8B, Lex10 was added to the extract at a final concentration of 1 μM (several fold above the minimum inhibitory concentration) after which competitor oligonucleotides were added at different stages. Three different oligonucleotides of similar size were used: the SAR oligo contains two large clustered AT-tracts of the SAR probe (W17N5W15), the W9 oligo has a single AT tract of 9 base pairs and the GAGAA oligo harbors 5 tandem GAGAA repeats.
Topoisomerase II inhibition and chromosome assembly were as described previously (Girard et al., 1998, Strick and Laemmli, 1995). Affinity cleavage experiments was performed as described elsewhere (Turner et al., 1997).

[3] = target: W9 probe (isolated 9 bp AT-tract); experiment: DNase I footprinting on W9 probe; format: binding; conditions: for Kd: apparent dissociation constant, read-out: Kdapp W9
Source text: To target AT-tracts, the principal component of satellite I, III and SARs), a pyrrole pentamer was synthesized by facile solid phase chemistry in which five pyrrole (Py) aromatic amino acid rings are linked covalently by amide bonds (Baird and Dervan, 1996). The resulting compound, termed P7 had the sequence Py-Py-Py-Py-Py-β-Dp (where β=β-alanine and Dp=dimethylaminopropylamide). This compound is expected to bind 7 successive A or T base pairs (Ws) according to the n+1 rule where n is the number of amides (Youngquist and Dervan, 1985). The DNA binding properties of P7 were assessed by DNAse I footprinting experiments using a synthetic probe containing isolated, repeated AT-tracts of 9 Ws (W9, FIG. 2A). By visual inspection, the apparent dissociation constant (Kapp) for P7 was estimated to be approximately 80 nM (Table 3).
were hybridized to obtain the W9 probe, oligomerized by ligation and digested with BamHl and BglII to obtain different tandem repeats. The following oligonucleotides were prepared identically:
as §1, §2

[4] = test system: Drosophila satellite III chromatin (topoisomerase II cleavage); experiment: Topoisomerase II cleavage in satellite III of Kc nuclei in Xenopus egg extracts with VM26; format: biochemical

| Molecule | Ratio (KappW9/KappSAR, SAR preference factor) [1] | Kd [1] [µM] | Kd ([3]; W9 probe) [µM] | stimulation of topoisomerase II cleavage in satellite III [4] | further results |
| --- | --- | --- | --- | --- | --- |
| CN(C)CCCNC(=O)CCNC(=O)c1cc(NC(=O)c2cc(NC(=O)c3cc(NC(=O)c4cc(NC(=O)c5cccn5C)cn4C)cn3C)cn2C)cn1C [Compound P7, Py-Py-Py-Py-Py-β-Dp] | 2.3 | 0.035 | ~0.08 | massively stimulated | concentration inhibiting chromosome condensation (block at ruffle stage) ([2]; 120 min): > 8 µM; Kd ([3]; W9 probe, listed as P10): 0.08 µM |
| CN(C)CCCNC(=O)CCNC(=O)c1cc(NC(=O)c2cc(NC(=O)c3cc(NC(=O)CCNC(=O)c4cc(NC(=O)c5cc(NC(=O)c6cc(NC(=O)CCNC(=O)c7cc(NC(=O)c8cc(NC(=O)c9cccn9C)cn8C)cn7C)cn6C)cn5C)cn4C)cn3C)cn2C)cn1C [Compound P13, PyPyPy-β-PyPyPy-β-PyPyPy-β-Dp] | 0.8 | 0.00125 | 0.001 | – | ligand concentration giving nearly complete protection (coating) of the W9 probe [3]: ≥ 62.5 nM; GC tolerance / AT-specificity of footprint ([3]; W9 probe, flanking mixed sequences): marked tendency to protect GC base pairs |
| (Py)3-β-(Py)3-(Ao)3-(Py)5-β-Dp [Lex18] | 100 | 0.001 | 0.1 | – | – |
| (Py)3-β-(Py)3-β-Dp-F* [Compound P9F] | 4 | 0.001 | 0.004 | – | increase of SAR specificity upon fluorescein tagging [1]: about 4 fold |
| F*-γ-(Py)3-β-(Py)3-β-Dp-Glu-(Ao)3-(Py)5-β-Dp [Lex10F] | 20 | 0.001 | 0.02 | – | reduction of binding affinity upon fluorescein tagging ([3]; versus untagged compound): only a minor reduction in affinity |
| F*-γ-(Py)5-β-Dp [Compound P7F] | 2.5 | 1.2 | 3 | – | – |
| F*-γ-(Py)5-β-Dp-Glu-(Ao)3-(Py)5-β-Dp [Lex9F] | 25 | 0.1 | 2.5 | – | – |
| PyPyPy-β-PyPyPy-β-Dp-E-AoAoAo-PyPyPyPyPy-β-Dp [Lex10] | – | 0.00028 | 0.02 | does not stimulate | affinity for SAR lower than that of MATH20 [1]: approximately 100; concentration giving even earlier arrest (swollen, remodeled sperm-shaped nuclei) [2]: 500 nM; higher concentration than MATH20 for inhibition of condensation [2]: 80 fold; reversal of condensation inhibition by competitor oligonucleotide ([2]; 360 ng of W9 or GAGAA oligo): did not reverse the block; reversal of condensation inhibition by competitor oligonucleotide ([2]; 50 to 100 ng SAR oligo): completely reversed; concentration at which inhibition of topoisomerase II cleavage occurs abruptly [4]: around 600 nM; inhibition of topoisomerase II cleavage in satellite III ([4]; 1 μM): inhibits cleavage of topoisomerase II completely |
| PyPyPyPyPy-β-Dp-E-AoAoAo-PyPyPyPyPy-β-Dp [Lex9] | 2 | 0.00175 | 0.0035 | much reduced cleavage stimulation | SAR specificity factor after tagging with fluorescent label ([1]; value of the tagged derivative): 25; inhibition of condensation ([2]; 250 to 500 nM): Little inhibition |
